According to paper PMC8975272, “Novel glucagon-like peptide-1 analogue exhibits potency-driven G-protein biased agonism with promising effects on diabetes and diabetic dry eye syndrome” (Bioengineered, 2022):

Legend:
hGLP-1 R = molecular target: T1, hGLP-1 R (Homo sapiens, UniProt P43220); assay: GLP-1R recycling assay (exendin-4-TMR uptake); assay type: cell-based; conditions: 100 nM agonist 1 hour, washout, exendin-4-TMR 1 or 3 hours; compared to Semaglutide
T1 construct: expressed in transfected cells; host or cells: INS-1 832/3 (abstract: 832/13) rat insulinoma cells
T1 sequence (P43220 24-463): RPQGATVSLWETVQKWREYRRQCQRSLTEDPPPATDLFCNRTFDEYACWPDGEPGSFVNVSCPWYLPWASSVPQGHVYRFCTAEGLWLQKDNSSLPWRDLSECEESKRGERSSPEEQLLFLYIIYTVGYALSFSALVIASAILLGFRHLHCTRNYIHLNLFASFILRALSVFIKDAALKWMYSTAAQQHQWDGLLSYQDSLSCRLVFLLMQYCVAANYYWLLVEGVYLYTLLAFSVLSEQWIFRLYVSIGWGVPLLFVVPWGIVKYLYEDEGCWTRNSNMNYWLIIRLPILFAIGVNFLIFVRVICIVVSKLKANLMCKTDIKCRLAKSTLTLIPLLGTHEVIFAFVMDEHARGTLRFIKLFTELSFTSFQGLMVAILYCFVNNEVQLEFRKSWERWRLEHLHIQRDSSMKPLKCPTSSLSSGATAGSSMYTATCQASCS
Procedure: INS-1 hGLP-1 R cells were seeded the day before the assay in 96-well imaging plates. Cells were washed twice with PBS, then stimulated with 100 nM of respective agonist in complete media, with an equal number of wells kept as vehicles. Following stimulation of the cells for 1 hour, they were washed twice with PBS and labeled with exendin-4-TMR13 for either 1 hour or 3 hours, washed again with PBS, and imaged via high content microscopy.

mouse pancreatic islets = assay: Static acute insulin secretion, mouse islets; assay type: cell-based
Procedure: Mice were euthanized by cervical dislocation and pancreatic islets isolated by collagenase digestion as previously described and cultured in RPMI 1640 medium, 11 mM glucose, supplemented with 10% (v/v) FBS plus penicillin (100 units/mL), and streptomycin (0.1 mg/mL) at 37°C in an atmosphere of humidified air (95%) and CO2 (5%).
Mouse islets (10/well) were incubated in triplicate for each condition and treatment. […] The secretion medium was then collected to measure the insulin and proinsulin concentrations using an insulin HTRF kit (Cisbio Bioassays). INS-1 832/3 cells were treated with the indicated concentrations of SM102 or Semaglutide for 16 h in complete RPMI1640 medium at 11 mM glucose. A sample of supernatant was collected and analyzed for insulin content by HTRF.

INS-1 832/3 cells = assay: Insulin release after overnight incubation, INS-1 832/3 cells; assay type: cell-based; conditions: 16 h (overnight), range of concentrations, 11 mM glucose, HTRF
Procedure: Mouse islets (10/well) were incubated in triplicate for each condition and treatment. Islets were preincubated for 1 hour in 3 mM glucose KRH buffer prior to secretion assay (30 min) in 3 mM or 11 mM glucose with vehicle or 100 nM SM102 or Semaglutide. The secretion medium was then collected to measure the insulin and proinsulin concentrations using an insulin HTRF kit (Cisbio Bioassays). INS-1 832/3 cells were treated with the indicated concentrations of SM102 or Semaglutide for 16 h in complete RPMI1640 medium at 11 mM glucose. A sample of supernatant was collected and analyzed for insulin content by HTRF.

[1] = Pharmacokinetics in CD-1 mice; assay type: in vivo, mouse
db/db mice = assay: Chronic administration study in db/db mice; assay type: in vivo, mouse
Procedure: The diabetic db/db mice (half male and half female, 8–12 weeks, body weight- 40-50 g) were brought from Cavens Company Ltd. (Changzhou) and housed in individual ventilated cages with free access to food and water and maintained on a 12-hour light/dark cycle. Animals were acclimatized for 3 days. On day 0, each animal was weighed using a digital weighing balance. Blood was collected by retro-orbital plexus puncture. Blood glucose level was measured using a hand-held blood glucose meter (Johnson & Johnson) and %HbA1c was measured using auto fluorescence immunoanalyzer.
Animals were divided into treatment groups (n = 8 per group; 4 male, 4 female) with matched baseline %HbA1c levels (mean 7.3%). Vehicle, SM102 (1, 3 and 9 nmol/kg), Semaglutide (15 nmol/kg) were subcutaneously injected into the neck region of the animals on every other day for 4 weeks.
Body weight and food intake were monitored serially. On day 29 of the study, 24 h following the last dose, blood was collected for measurement of %HbA1c, triglycerides, insulin, C-peptide and glucagon. The function of β-cell was assessed via calculating the […] from blood concentrations of glucose and insulin.

diabetic DES mice = assay: Chronic administration study in diabetic DES mice; assay type: in vivo, mouse; conditions: for increase in number of conjunctival goblet cells vs control mice: PAS staining
Procedure: DES in db/db mice was induced by twice daily administration of 5 μL of 0.2% benzalkonium chloride (Sigma-Aldrich) for 7 days. All diabetic DES mice were divided into vehicle group, SM102 treatment groups (1, 3 and 9 nmol/kg), Semaglutide treatment group (15 nmol/kg), and dulaglutide (1.5 nmol/kg) (n = 8 per group; 4 male, 4 female). The drugs were injected subcutaneously into the neck region of the animals on every other day for 4 weeks.
The mouse’s lower eyelid was gently pulled downward, and a line with a 1 mm length of the phenol red cotton thread was placed on the upper part of the palpebral conjunctiva for 15 seconds near the inner part about one-third of the distance from the outer corner of the eyelid. The length of the colored part of the phenol red thread was recorded as the tear secretion. 1 μL of 0.1% liquid fluorescein sodium was instilled into the conjunctival sac followed by three blinks, and tear breakup time (BUT) was recorded in seconds.
[…] The levels of interleukin-6 (IL-6), interleukin-1β (IL-1β), tumor necrosis factor-α (TNF-α), transforming growth factor β1 (TGF-β1) and malondialdehyde (MDA) as well as superoxide dismutase (SOD) activity in the supernatant were measured using appropriate ELISA kits brought from R&D company (USA). The expression levels of p38/p-p38, JNK/pJNK and ERK/p-ERK were analyzed by Western blot methods as previously reported.
Hematoxylin and eosin (H&E) staining were performed as described below: Corneas were fixed in 4% formalin. After dehydration, the specimens were embedded in paraffin and serial sections of 6 μm thickness were cut and stained with a hematoxylin-eosin reagent. Periodic Acid–Schiff (PAS) staining were performed as described below: Conjunctiva was fixed in 4% formalin. After dehydration, the specimens were embedded in paraffin and serial sections of 6 μm thickness were cut and stained with 0.5% PAS staining. The number of positively stained cup-shaped cells in the stained conjunctival sections was counted using image-Pro Plus6.0 (MediaCybernetics, USA).

GLP-1R [2] = molecular target: T2, GLP-1R (Homo sapiens, UniProt P43220); assay: cAMP accumulation (HTRF); assay type: cell-based; design: expressed in transfected cells
T2 sequence (P43220 24-463): as above
Procedure: (§1) HEK293 cells stably expressing human GLP-1R (hGLP-1 R) (generated in-house using HEK293 cell line purchased from ATCC, Cat# CRL-1573) were maintained in Dulbecco’s Modified Eagle Medium (DMEM, Gibco, 11,054,020) with 10% fetal bovine serum (FBS, Gibco, 10,099,133 C), 1% penicillin/streptomycin (Gibco, 10,378,016) and 1 mg/mL G418 (Gibco, 10,131,035). Wild-type INS-1 832/3 cells, or INS-1 832/3 cells lacking endogenous GLP-1 R (generated in-house using INS-1 832/3 cell line purchased from NTCC, Cat# CVCL_ZL55) were maintained in RPMI-1640 (Gibco, 22,400,071) with 1 mM sodium pyruvate (Gibco, 11,360,070), 50 μM β-mercaptoethanol (Gibco, 21,985,023), 10% FBS, and 1% penicillin/streptomycin. PathHunter CHO-K1-βarr2-EAGLP1R cells (DiscoverX) were maintained in F12 medium (Gibco, 11,320,033) with 10% FBS, 1% penicillin/streptomycin, 1 mg/mL G418 and 250 μg/mL hygromycin (Gibco, 10,687,010).
HEK293 stably expressing hGLP-1 R cells were stimulated with agonist for 30 min at 37°C in serum-free medium (Gibco, 12,753,018). cAMP was determined at the end of the incubation period by homogenous time resolved fluorescence (HTRF; cAMP Dynamic 2 kit, Cisbio) using a Molecular Devices iD5 plate reader.

GLP-1R [3] = molecular target: T2, GLP-1R; assay: GLP-1R endocytosis, high content imaging; assay type: cell-based; design: expressed in transfected cells; conditions: no clear difference in kinetics between the two ligands
GLP-1R [4] = molecular target: T2, GLP-1R; assay: GLP-1R binding affinity; design: expressed in transfected cells; conditions: compared to Semaglutide
GLP-1R [5] = molecular target: T2, GLP-1R; assay: PathHunter β-arrestin-2 recruitment; assay type: cell-based; design: host or cells: CHO-K1 (PathHunter); conditions: SM102 vs Semaglutide; 30 min at 37°C, luminescence
Procedure: as §1
PathHunter CHO-K1-βarr2-EA-GLP-1 R cells were stimulated with agonist for 30 min at 37°C in Ham’s F12 medium (Gibco, 11,765,054) without FBS. At the end of the incubation period cells were lysed by addition of PathHunter detection reagents and luminescent signal was subsequently recorded from each well.

[6] = all 3 doses of SM102, Western blot, p < 0.05
[7] = corneal homogenates, 4 weeks, ELISA

CC[C@H](C)[C@H](NC(=O)[C@H](Cc1ccccc1)NC(=O)[C@H](CCC(=O)O)NC(=O)[C@H](CCCCNC(=O)COCCOCCNC(=O)C(C)(C)NC(=O)CC[C@H](NC(=O)CCCCCCCCCCCCCCCCC(=O)O)C(=O)O)NC(=O)[C@H](C)NC(=O)[C@H](C)NC(=O)[C@H](CCC(N)=O)NC(=O)CNC(=O)[C@H](CCC(=O)O)NC(=O)[C@H](CC(C)C)NC(=O)[C@H](Cc1ccc(O)cc1)NC(=O)[C@H](CO)NC(=O)[C@H](CO)NC(=O)[C@@H](NC(=O)[C@H](CC(=O)O)NC(=O)[C@H](CO)NC(=O)[C@@H](NC(=O)[C@H](Cc1ccccc1)NC(=O)[C@@H](NC(=O)CNC(=O)[C@H](CCC(=O)O)NC(=O)C(C)(C)NC(=O)[C@@H](N)Cc1c[nH]cn1)[C@@H](C)O)[C@@H](C)O)C(C)C)C(=O)N[C@@H](C)C(=O)N[C@@H](Cc1c[nH]c2ccccc12)C(=O)N[C@@H](CC(C)C)C(=O)N[C@H](C(=O)N[C@@H](CCCNC(=N)N)C(=O)NCC(=O)N[C@@H](CCCNC(=N)N)C(=O)NCC(=O)N[C@@H](CC(C)C)C(N)=O)C(C)C [SM102]
GLP-1 R recycling (hGLP-1 R): modestly reduced recycling | glucose-stimulated insulin secretion, SM102 vs Semaglutide, lower doses (mouse pancreatic islets; 1 and 10 nM, data not shown): differences were not apparent | glucose-stimulated insulin secretion (GSIS) (mouse pancreatic islets; islets from C57BL/6 mice, 11 mM glucose, 100 nM agonist, 30 min, no difference between agonists): potentiation of GSIS | insulin release responses, SM102 vs Semaglutide (INS-1 832/3 cells): virtually indistinguishable | half-life ([1]; mouse, plasma, sc, single subcutaneous injection, 1 mg/kg, male CD-1 mice): ~47.6 h | improvement in blood glucose and insulin secretion vs Semaglutide 15 nmol/kg (db/db mice; SM102 1 nmol/kg, 4 weeks of treatment): comparable to Semaglutide | therapeutic effect vs Semaglutide 15 nmol/kg (db/db mice; SM102 3 nmol/kg s.c. every other day, 28 days): comparable | therapeutic effect vs Semaglutide 15 nmol/kg: weight loss, glucose, HOMA-IR (db/db mice; SM102 9 nmol/kg s.c. every other day, 28 days): superior | breakup time of tear film (diabetic DES mice; 4-week treatment): significantly prolonged | tear secretion level vs control group (diabetic DES mice; 4 weeks of treatment, phenol red cotton thread): significantly enhanced | increase in number of conjunctival goblet cells vs control mice (diabetic DES mice; SM102 1 nmol/kg, 4 weeks): approximately 1 fold | increase in number of conjunctival goblet cells vs control mice (diabetic DES mice; SM102 3 nmol/kg, 4 weeks): ~4 fold | tear secretion level vs Semaglutide or dulaglutide (diabetic DES mice; SM102 9 nmol/kg, 4 weeks): significantly higher | increase in number of conjunctival goblet cells vs control mice (diabetic DES mice; SM102 9 nmol/kg, 4 weeks): ~5 fold | phosphorylation level of ERK vs model group (diabetic DES mice; [6]): significantly lower | phosphorylation level of JNK vs model group (diabetic DES mice; [6]): significantly lower | phosphorylation level of p38 vs model group (diabetic DES mice; [6]): significantly lower | concentration of MDA vs vehicle group (diabetic DES mice; corneal homogenate, 4 weeks, ELISA): significantly decreased | level of IL-1β vs control mice (diabetic DES mice; [7]): significantly reduced | level of IL-6 vs control mice (diabetic DES mice; [7]): significantly reduced | level of TGF-β1 vs control mice (diabetic DES mice; [7]): increased | level of TNF-α vs control mice (diabetic DES mice; [7]): significantly reduced | SOD activity (diabetic DES mice; dose range 1 ~ 9 nmol/kg, 4 weeks): dose-dependent significant increase | corneal tissue damage (H&E staining) (diabetic DES mice; medium and high dose SM102, 4 weeks): significantly reversed corneal tissue damage | cAMP signaling potency (GLP-1R [2]; compared to Semaglutide, agonist 30 min at 37°C, serum-free medium, HTRF, n = 5): signaling potency was increased | signaling selectivity in favor of cAMP compared to endocytosis and β-arrestin-2 recruitment (GLP-1R [2]; subtracted pEC50 estimates, SM102 vs Semaglutide, one-way ANOVA with Tukey's test): significant signaling selectivity in favor of cAMP | GLP-1 R endocytosis (GLP-1R [3]): rapid GLP-1 R endocytosis | GLP-1 R binding affinity (GLP-1R [4]): moderate increases | β-arrestin-2 recruitment response potency or Emax (GLP-1R [5]): no differences in response potency or Emax

CC[C@H](C)[C@H](NC(=O)[C@H](Cc1ccccc1)NC(=O)[C@H](CCC(=O)O)NC(=O)[C@H](CCCCNC(=O)COCCOCCNC(=O)COCCOCCNC(=O)CC[C@H](NC(=O)CCCCCCCCCCCCCCCCC(=O)O)C(=O)O)NC(=O)[C@H](C)NC(=O)[C@H](C)NC(=O)[C@H](CCC(N)=O)NC(=O)CNC(=O)[C@H](CCC(=O)O)NC(=O)[C@H](CC(C)C)NC(=O)[C@H](Cc1ccc(O)cc1)NC(=O)[C@H](CO)NC(=O)[C@H](CO)NC(=O)[C@@H](NC(=O)[C@H](CC(=O)O)NC(=O)[C@H](CO)NC(=O)[C@@H](NC(=O)[C@H](Cc1ccccc1)NC(=O)[C@@H](NC(=O)CNC(=O)[C@H](CCC(=O)O)NC(=O)C(C)(C)NC(=O)[C@@H](N)Cc1cnc[nH]1)[C@@H](C)O)[C@@H](C)O)C(C)C)C(=O)N[C@@H](C)C(=O)N[C@@H](Cc1c[nH]c2ccccc12)C(=O)N[C@@H](CC(C)C)C(=O)N[C@H](C(=O)N[C@@H](CCCNC(=N)N)C(=O)NCC(=O)N[C@@H](CCCNC(=N)N)C(=O)NCC(=O)O)C(C)C [Semaglutide, reference compound]
Plasma half-life relative to SM-102 ([1]; subcutaneous injection, same dose, CD-1 mice): comparable
